In patent US12616673B2 (priority 2020, dated 2026):

System: LC3 in MOLM-13 cells
Experiment: Autophagy activation: LC3 Western blot and confocal microscopy
Settings: 48 hours in culture
Protocol: C MOLM-13 cells were treated as in FIG. 1A for 24 or 48 hours. […] D The same cells analysed by Western blot in C were also assessed by confocal microscopy analysis to highlight the LC3 dots (in green); the DNA is highlighted in blue by the Hoechst dye.
After being deposited on a slide via cytospin, the cells were fixed with 4% paraformaldehyde for 7 min, permeabilized with 0.1% TritonX100 in PBS/1% BSA for 5 min and stained with the primary anti-FLT3 (rabbit monoclonal, FLT3 (8F2), #3462, Cell Signaling Technologies, Danvers, MA, USA) or anti-calnexin (CNX, rabbit polyclonal AB22595, AbCam, Cambridge, UK) or anti-calreticulin (CRT, rabbit polyclonal AB2907, AbCam, Cambridge, UK) or anti-LC3 (LC3B Antibody #2775) antibodies, and then with an Alexa Fluor-488 secondary anti-rabbit IgG antibody Molecular Probes, ThermoFisher Scientific, Waltham, MA, USA); the DNA was detected with the TOPRO-3 (Molecular Probes, ThermoFisher Scientific, Waltham, MA, USA) or Hoechst dye (Molecular Probes, ThermoFisher Scientific, Waltham, MA, USA) and the slides were mounted with the Vectashield medium (Vector Laboratories, Burlingame, CA, USA). The images were acquired with a Leica confocal laser scanning microscope TCS SP2 at 40× magnification or with a Zeiss LSM900 at 63× magnification. The images were analysed using the Leica Confocal software (Leica, Milan, Italy) or the Zeiss Zen Blue software. […]

## CC1=C(/C=C/C(C)=C/C=C/C(C)=C/C(=O)O)C(C)(C)CCC1 [R, all-trans retinoic acid]
  autophagy activation (LC3 activity, LC3-II/LC3-I): slight increase in LC3 activity
